Measurements taken from patent US9586951B2 (FUJIFILM Corporation, priority 2013, dated 2017).

Columns and labels:
ATM = target: T1, ATM (Homo sapiens, UniProt Q13315); assay: ATM inhibition test (phosphorylation of Chk2 generated by ionizing radiation, AlphaScreen SureFire); type: cell-based; settings: phosphorylated Chk2 in NCI-H460 cells, ionizing radiation 8Gy, 1 hour after test compound treatment; read-out: ATM inhibitory activity
T1 construct: detecting phosphorylation of Chk2 in a human non-small cell lung cancer cell line NCI-H460 (ATCC company); host or cells: NCI-H460 human non-small cell lung cancer cells
T1 sequence (Q13315 whole entry): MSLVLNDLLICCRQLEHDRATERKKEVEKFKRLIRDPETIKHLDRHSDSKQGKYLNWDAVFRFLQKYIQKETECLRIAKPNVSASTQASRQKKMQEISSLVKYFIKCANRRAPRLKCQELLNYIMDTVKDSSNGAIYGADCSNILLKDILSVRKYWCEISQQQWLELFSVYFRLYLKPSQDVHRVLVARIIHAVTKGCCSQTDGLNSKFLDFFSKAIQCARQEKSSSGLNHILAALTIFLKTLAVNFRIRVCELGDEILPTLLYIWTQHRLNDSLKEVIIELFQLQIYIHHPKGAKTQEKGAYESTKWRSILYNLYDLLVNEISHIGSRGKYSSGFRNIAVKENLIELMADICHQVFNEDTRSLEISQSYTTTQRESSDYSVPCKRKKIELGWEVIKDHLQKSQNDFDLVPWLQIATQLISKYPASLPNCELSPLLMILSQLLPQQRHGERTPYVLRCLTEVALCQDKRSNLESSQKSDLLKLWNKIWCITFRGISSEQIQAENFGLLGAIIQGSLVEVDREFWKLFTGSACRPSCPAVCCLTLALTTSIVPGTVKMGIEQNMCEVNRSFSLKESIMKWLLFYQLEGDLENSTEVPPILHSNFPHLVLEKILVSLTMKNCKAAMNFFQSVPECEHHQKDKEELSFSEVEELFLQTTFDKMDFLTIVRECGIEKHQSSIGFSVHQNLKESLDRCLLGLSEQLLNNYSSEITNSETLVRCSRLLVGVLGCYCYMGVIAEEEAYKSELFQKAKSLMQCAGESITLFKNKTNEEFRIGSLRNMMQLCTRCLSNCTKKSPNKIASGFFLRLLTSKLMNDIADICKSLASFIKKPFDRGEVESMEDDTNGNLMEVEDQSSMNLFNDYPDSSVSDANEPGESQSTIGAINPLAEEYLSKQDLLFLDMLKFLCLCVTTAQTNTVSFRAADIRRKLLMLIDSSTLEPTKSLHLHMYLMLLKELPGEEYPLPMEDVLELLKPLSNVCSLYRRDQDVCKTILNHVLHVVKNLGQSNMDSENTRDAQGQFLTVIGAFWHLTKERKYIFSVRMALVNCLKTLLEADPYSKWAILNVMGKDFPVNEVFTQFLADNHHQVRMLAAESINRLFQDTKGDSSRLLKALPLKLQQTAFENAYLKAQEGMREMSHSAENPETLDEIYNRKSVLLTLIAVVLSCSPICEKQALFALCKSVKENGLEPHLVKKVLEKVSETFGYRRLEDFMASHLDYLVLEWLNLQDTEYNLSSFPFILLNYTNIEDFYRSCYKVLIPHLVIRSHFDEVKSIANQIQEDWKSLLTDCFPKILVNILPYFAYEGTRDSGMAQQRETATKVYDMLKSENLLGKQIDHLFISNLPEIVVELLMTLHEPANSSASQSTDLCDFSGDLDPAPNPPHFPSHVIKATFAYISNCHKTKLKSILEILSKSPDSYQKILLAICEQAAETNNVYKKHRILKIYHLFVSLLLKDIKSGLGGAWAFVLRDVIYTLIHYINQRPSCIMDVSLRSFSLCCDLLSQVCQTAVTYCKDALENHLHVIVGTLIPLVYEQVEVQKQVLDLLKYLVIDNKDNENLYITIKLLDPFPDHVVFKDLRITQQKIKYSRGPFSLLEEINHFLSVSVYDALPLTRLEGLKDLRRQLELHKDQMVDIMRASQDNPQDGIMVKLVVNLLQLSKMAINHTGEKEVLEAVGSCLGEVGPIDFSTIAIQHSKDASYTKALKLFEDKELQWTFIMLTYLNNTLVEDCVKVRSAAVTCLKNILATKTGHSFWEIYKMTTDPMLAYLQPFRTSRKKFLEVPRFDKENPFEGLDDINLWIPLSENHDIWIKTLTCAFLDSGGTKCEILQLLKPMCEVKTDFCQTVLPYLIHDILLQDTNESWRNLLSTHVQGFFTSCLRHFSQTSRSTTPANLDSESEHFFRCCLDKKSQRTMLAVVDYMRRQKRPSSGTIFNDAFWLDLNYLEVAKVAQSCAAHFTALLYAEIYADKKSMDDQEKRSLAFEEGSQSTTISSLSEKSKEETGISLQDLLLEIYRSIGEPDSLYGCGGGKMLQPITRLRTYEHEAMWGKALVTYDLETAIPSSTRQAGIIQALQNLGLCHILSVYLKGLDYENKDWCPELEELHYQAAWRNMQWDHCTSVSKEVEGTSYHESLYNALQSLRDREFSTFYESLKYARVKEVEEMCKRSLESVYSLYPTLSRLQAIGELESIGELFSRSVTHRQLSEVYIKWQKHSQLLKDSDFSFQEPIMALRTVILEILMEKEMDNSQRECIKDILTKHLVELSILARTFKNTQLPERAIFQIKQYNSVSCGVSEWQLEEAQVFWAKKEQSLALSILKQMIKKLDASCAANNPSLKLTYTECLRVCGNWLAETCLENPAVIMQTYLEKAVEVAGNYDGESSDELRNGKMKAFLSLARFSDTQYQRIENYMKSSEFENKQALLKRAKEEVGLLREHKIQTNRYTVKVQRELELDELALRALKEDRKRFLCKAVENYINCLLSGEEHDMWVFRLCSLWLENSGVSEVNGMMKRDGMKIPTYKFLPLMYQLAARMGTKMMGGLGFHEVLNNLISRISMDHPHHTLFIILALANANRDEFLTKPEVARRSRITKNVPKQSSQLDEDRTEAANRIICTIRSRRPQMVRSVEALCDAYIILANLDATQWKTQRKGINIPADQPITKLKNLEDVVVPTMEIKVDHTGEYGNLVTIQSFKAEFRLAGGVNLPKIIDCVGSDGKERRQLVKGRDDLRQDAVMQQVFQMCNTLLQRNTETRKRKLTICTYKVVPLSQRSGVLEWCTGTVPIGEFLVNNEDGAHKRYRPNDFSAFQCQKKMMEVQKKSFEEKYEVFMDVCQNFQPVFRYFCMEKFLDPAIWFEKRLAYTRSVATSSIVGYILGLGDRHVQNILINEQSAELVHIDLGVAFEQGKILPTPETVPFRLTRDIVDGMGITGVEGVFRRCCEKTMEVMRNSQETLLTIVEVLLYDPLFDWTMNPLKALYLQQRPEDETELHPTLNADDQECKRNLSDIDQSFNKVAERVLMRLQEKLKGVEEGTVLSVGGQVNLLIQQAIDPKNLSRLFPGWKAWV
Outline: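 Human NCI-H460 lung cancer cells were treated with compound for 1 h, then irradiated at 8Gy and incubated 1 h at 37° C. Phospho-Chk2 was quantified by AlphaScreen SureFire; inhibition % was normalised between irradiated untreated and non-irradiated untreated wells.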

[1] = tested on: human non-small cell lung cancer cell line NCI-H460; assay: Cell proliferation inhibition test by sensitivity-enhancing to ionizing radiation (Cell Titer Glo); type: cell-based; settings: Homo sapiens, NCI-H460, 120 h, concentration in which SER became 2; NCI-H460 cells, ionizing radiation 2 Gy, cultured 120 hour
Procedure: A human non-small cell lung cancer cell line NCI-H460 (ATCC company) was adjusted so as to be 2×10^3 cells/mL in a RPMI-1640 medium containing penicillin/streptomycin and FBS having a final concentration of 10%, and this was seeded by 100 μL per well in 96-well CellBIND® plates (Corning International Inc.). After 24 hours, the medium of cells was replaced with 100 μL of a medium including serially diluted liquid of the test compound or DMSO having a final concentration of 0.1%. 30 minutes after the medium was replaced, half of the plates were irradiated with ionizing radiation 2 Gy (Faxitron Bioptics, LLC, RX-650 type). The cells of the plates irradiated with ionizing radiation and the plates not being irradiated with ionizing radiation were cultured at 37° C. for 120 hour in 5% CO2. After a Cell Titer Glo reaction liquid of an equal volume was added to each well, the amount of luminescence was measured, according to the instruction book of Cell Titer Glo (Promega Corporation). Since the amount of luminescence is proportional to the ATP concentration in cells, the amount of luminescence was used as an indicator of the number of viable cells. Sensitivity-enhancing effects (SER) to ionizing radiation by the test compound was calculated by the following equation. SER=(amount of luminescence of wells including DMSO having a final concentration of 0.1% in the plates irradiated with ionizing radiation×amount of luminescence of wells including a compound in the plates not being irradiated with ionizing radiation)/(amount of luminescence of wells including the test compound in the plates irradiated with ionizing radiation×amount of luminescence of wells including DMSO having a final concentration of 0.1% in the plates not being irradiated with ionizing radiation)
SER at each compound concentration was plotted by nonlinear regression fit (FitModel (205)) by a sigmoidal dose-response equation using XLfit software (IDBS), and the concentration (SER2) in which SER became 2 was calculated.

## O=c1cc(N2CCOCC2)cc(-c2cccc3c2Sc2ccc(N[C@@H]4CCCC[C@H]4N4CCOCC4)cc2S3)[nH]1 [Example 1-48-1, 4-Morpholino-6-(7-(((1R,2R)-2-morpholinocyclohexyl)amino)thianthren-1-yl)pyridin-2(1H)-one]
ATM
  IC50: < 100 nM
[1]
  SER2 (concentration at which the radiation sensitivity-enhancement ratio reaches 2): 100 to 500 nM

## COc1cnc(C(C)Nc2ccc3c(c2)Sc2cccc(-c4cc(N5CCOCC5)cc(=O)[nH]4)c2S3)cn1 (stereo not drawn) [Example 1-12-114, 6-(7-((1-(5-Methoxypyrazin-2-yl)ethyl)amino)thianthren-1-yl)-4-morpholino pyridin-2(1H) one]
ATM
  IC50: < 100 nM
[1]
  SER2 (concentration at which the radiation sensitivity-enhancement ratio reaches 2): 100 to 500 nM

## CC(Nc1ccc2c(c1)Cc1cccc(-c3cc(N4CCOCC4)cc(=O)[nH]3)c1O2)c1nccc(C(F)F)n1 (stereo not drawn) [Example 2-14-62, 6-(7-((l-(4-(Difluoromethyl)pyrimidin-2-yl)ethyl)amino)-9H-xanthen-4-yl)-4-morpholino pyridin-2(1H)-one]
ATM
  IC50: < 100 nM
[1]
  SER2 (concentration at which the radiation sensitivity-enhancement ratio reaches 2): 100 to 500 nM

## Cc1cnc(C(C)Nc2ccc3c(c2)Cc2cccc(-c4cc(N5CCOCC5)cc(=O)[nH]4)c2O3)nc1 (stereo not drawn) [Example 2-14-80, 6-(7-((1-(5-Methylpyrimidin-2-yl)ethyl)amino)-9H-xanthen-4-yl)-4-morpholino pyridin-2 (1H)-one]
ATM
  IC50: < 100 nM
[1]
  SER2 (concentration at which the radiation sensitivity-enhancement ratio reaches 2): 100 to 500 nM

## COc1cc(CNc2ccc3c(c2)Sc2cccc(-c4cc(N5CCOCC5)cc(=O)[nH]4)c2S3)ccn1 [Example 1-44-4, 6-(7-(((2-Methoxypyridin-4-yl)methyl)amino)thianthren-1-yl)-4-morpholino pyridin-2 (1H)-one]
ATM
  IC50: < 100 nM
[1]
  SER2 (concentration at which the radiation sensitivity-enhancement ratio reaches 2): 500 to 2000 nM

## O=c1cc(N2CCOCC2)cc(-c2cccc3c2Oc2ccc(NCc4cncc(Br)c4)cc2S3)[nH]1 [Example 4-8-22, 6-(8-(((5-Bromopyridin-3-yl)methyl)amino)phenoxathiin-4-yl)-4-morpholino pyridin-2(1H)-one]
ATM
  IC50: < 100 nM
[1]
  SER2 (concentration at which the radiation sensitivity-enhancement ratio reaches 2): 100 to 500 nM

## O=c1cc(N2CCOCC2)cc(-c2cccc3c2Oc2ccc(NCc4cncc(-n5cccc5)c4)cc2C3)[nH]1 [Example 2-2-58, 6-(7-(((5-(1H-Pyrrol-1-yl)pyridin-3-yl)methyl)amino)-9H-xanthen-4-yl)-4-morpholino pyridin-2(1H)-one]
ATM
  IC50: < 100 nM
[1]
  SER2 (concentration at which the radiation sensitivity-enhancement ratio reaches 2): 500 to 2000 nM

## O=c1cc(N2CCOCC2)cc(-c2cccc3c2Sc2ccc(NC4CCN(Cc5cccnc5)CC4)cc2S3)[nH]1 [Example 1-24-17, 4-Morpholino-6-(7-((1-(pyridin-3-ylmethyl)piperidin-4-yl)amino)thianthren-1-yl)pyridin-2 (1H)-one]
ATM
  IC50: < 100 nM
[1]
  SER2 (concentration at which the radiation sensitivity-enhancement ratio reaches 2): 100 to 500 nM

## O=c1cc(N2CCOCC2)cc(-c2cccc3c2Oc2ccc(NCc4cncc(-n5cccn5)c4)cc2S3)[nH]1 [Example 4-4-9, 6-(8-(((5-(1H-Pyrazol-1-yl)pyridin-3-yl)methyl)amino)phenoxathiin-4-yl)-4-morpholino pyridin-2(1H)-one]
ATM
  IC50: < 100 nM
[1]
  SER2 (concentration at which the radiation sensitivity-enhancement ratio reaches 2): 100 to 500 nM

## O=c1cc(N2CCOCC2)cc(-c2cccc3c2Sc2ccc(NCc4cc(C5CC5)ccn4)cc2S3)[nH]1 [Example 1-12-14, 6-(7-(((4-Cyclopropylpyridin-2-yl)methyl)amino)thianthren-1-yl)-4-morpholino pyridin-2(1H)-one]
ATM
  IC50: < 100 nM
[1]
  SER2 (concentration at which the radiation sensitivity-enhancement ratio reaches 2): 100 to 500 nM

## COCC(CN1CCOCC1)Nc1ccc2c(c1)Sc1cccc(-c3cc(N4CCOCC4)cc(=O)[nH]3)c1S2 (racemic) [Example 1-17-1-1, 6-(7-((1-Methoxy-3-morpholinopropan-2-yl)amino)thianthren-1-yl)-4-morpholinopyridin-2(1H)-one]
ATM
  IC50: < 100 nM
[1]
  SER2 (concentration at which the radiation sensitivity-enhancement ratio reaches 2): < 100 nM

## O=c1cc(N2CCOCC2)cc(-c2cccc3c2Oc2ccc(NCc4cncc(F)c4)cc2S3)[nH]1 [Example 4-8-12, 6-(8-(((5-Fluoropyridin-3-yl)methyl)amino)phenoxathiin-4-yl)-4-morpholino pyridin-2(1H)-one]
ATM
  IC50: < 100 nM
[1]
  SER2 (concentration at which the radiation sensitivity-enhancement ratio reaches 2): 100 to 500 nM

## Cc1ccnc(CNc2ccc3c(c2)Sc2cccc(-c4cc(N5CCOCC5)cc(=O)[nH]4)c2O3)c1 [Example 4-8-19, 6-(8-(((4-Methylpyridin-2-yl)methyl)amino)phenoxathiin-4-yl)-4-morpholino pyridin-2(1H)-one]
ATM
  IC50: < 100 nM
[1]
  SER2 (concentration at which the radiation sensitivity-enhancement ratio reaches 2): 100 to 500 nM

## O=c1cc(N2CCOCC2)cc(-c2cccc3c2Oc2ccc(NCc4cncc(C5CCCC5)c4)cc2S3)[nH]1 [Example 4-8-15, 6-(8-(((5-Cyclopentylpyridin-3-yl)methyl)amino)phenoxathiin-4-yl)-4-morpholino pyridin-2(1H)-one]
ATM
  IC50: < 100 nM
[1]
  SER2 (concentration at which the radiation sensitivity-enhancement ratio reaches 2): 500 to 2000 nM

## CCN(C)CCC(Nc1ccc2c(c1)Sc1cccc(-c3cc(N4CCOCC4)cc(=O)[nH]3)c1S2)c1cccc(C)n1 (stereo not drawn) [Example 1-23-1, 6-(7-((3-(ethyl(methyl)amino)-1-(6-methylpyridin-2-yl)propyl)amino)thianthren-1-yl)-4-morpholinopyridin-2(1H)-one]
ATM
  IC50: < 100 nM
[1]
  SER2 (concentration at which the radiation sensitivity-enhancement ratio reaches 2): 100 to 500 nM

## O=c1cc(N2CCOCC2)cc(-c2c(F)ccc3c2Oc2ccc(NCc4cncc(Cl)c4)cc2C3)[nH]1 [Example 2-46-2, 6-(7-(((5-Chloropyridin-3-yl)methyl)amino)-3-fluoro-9H-xanthen-4-yl)-4-morpholinopyridin-2(1H)-one]
ATM
  IC50: < 100 nM
[1]
  SER2 (concentration at which the radiation sensitivity-enhancement ratio reaches 2): 100 to 500 nM

## COC[C@H](CN1CCO[C@@H](C)C1)Nc1ccc2c(c1)Sc1cccc(-c3cc(N4CCOCC4)cc(=O)[nH]3)c1S2 [Example 1-46-6, 6-(7-(((S)-1-Methoxy-3-((S)-2-methylmorpholino)propan-2-yl)amino)thianthren-1-yl)-4-morpholino pyridin-2(1H)-one]
ATM
  IC50: < 100 nM
[1]
  SER2 (concentration at which the radiation sensitivity-enhancement ratio reaches 2): < 100 nM

## Cc1ccc(CNc2ccc3c(c2)Sc2cccc(-c4cc(N5CCOCC5)cc(=O)[nH]4)c2S3)nc1 [Example 1-12-13, 6-(7-(((5-Methylpyridin-2-yl)methyl)amino)thianthren-1-yl)-4-morpholino pyridin-2 (1H)-one]
ATM
  IC50: < 100 nM
[1]
  SER2 (concentration at which the radiation sensitivity-enhancement ratio reaches 2): 100 to 500 nM

## Cc1ccnc(C(CO)Nc2ccc3c(c2)Sc2cccc(-c4cc(N5CCOCC5)cc(=O)[nH]4)c2S3)c1 (stereo not drawn) [Example 1-12-65, 6-(7-((2-Hydroxy-1-(4-methylpyridin-2-yl)ethyl)amino)thianthren-1-yl)-4-morpholino pyridin-2(1H)-one]
ATM
  IC50: < 100 nM
[1]
  SER2 (concentration at which the radiation sensitivity-enhancement ratio reaches 2): 100 to 500 nM

## CN(C)c1nccc(CNc2ccc3c(c2)Cc2cccc(-c4cc(N5CCOCC5)cc(=O)[nH]4)c2O3)n1 [Example 2-13-5, 6-(7-(((2-(Dimethylamino)pyrimidin-4-yl)methyl)amino)-9H-xanthen-4-yl)-4-morpholino pyridin-2(1H)-one]
ATM
  IC50: < 100 nM
[1]
  SER2 (concentration at which the radiation sensitivity-enhancement ratio reaches 2): 500 to 2000 nM

## Cc1cccc(CNc2ccc3c(c2)Sc2cccc(-c4cc(N5CCOCC5)cc(=O)[nH]4)c2O3)n1 [Example 4-8-5, 6-(8-(((6-Methylpyridin-2-yl)methyl)amino)phenoxathiin-4-yl)-4-morpholino pyridin-2(1H)-one]
ATM
  IC50: < 100 nM
[1]
  SER2 (concentration at which the radiation sensitivity-enhancement ratio reaches 2): 100 to 500 nM

## COc1cc(CNc2ccc3c(c2)Cc2cccc(-c4cc(N5CCOCC5)cc(=O)[nH]4)c2O3)cnc1OC [Example 2-2-35, 6-(7-(((5,6-Dimethoxypyridin-3-yl)methyl)amino)-9H-xanthen-4-yl)-4-morpholino pyridin-2(1H)-one]
ATM
  IC50: < 100 nM
[1]
  SER2 (concentration at which the radiation sensitivity-enhancement ratio reaches 2): 500 to 2000 nM

## O=c1cc(N2CCOCC2)cc(-c2cccc3c2Oc2ccc(NCc4cccs4)cc2C3)[nH]1 [Example 2-13-6, 4-Morpholino-6-(7-((thiophen-2-ylmethyl)amino)-9H-xanthen-4-yl) pyridin-2(1H)-one]
ATM
  IC50: < 100 nM
[1]
  SER2 (concentration at which the radiation sensitivity-enhancement ratio reaches 2): 500 to 2000 nM

## CC(CN1CCOCC1)Nc1ccc2c(c1)Sc1cccc(-c3cc(N4CCOCC4)cc(=O)[nH]3)c1S2 (racemic) [Example 1-13-2-1, 4-Morpholino-6-(7-((1-morpholinopropan-2-yl)amino)thianthren-1-yl)pyridin-2(1H)-one]
ATM
  IC50: < 100 nM
[1]
  SER2 (concentration at which the radiation sensitivity-enhancement ratio reaches 2): 100 to 500 nM
